The numbers were not newly measured in patent US11439651B2 (priority 2020, dated 2022), which cites them from elsewhere.

The test system of one data set is SARS particles. The note with it: cultured human cells with SARS particles added.
For another data set, the system named is SARS. The conditions noted are these: pre-treatment with low concentrations; cultured cells or freshly obtained human nasal epithelial cells.

For `CCCCCCCCCCCCC/C=C/[C@@H](O)[C@@H](N)CO` [sphingosine], the cellular infection entry in the data set on SARS particles was “prevented cellular infection”. In addition, the “adhesion of and infection with the virus” value in the data set with SARS is “prevented adhesion of and infection with the virus”.
